Laboratory results: patent publication US20090181953A1, “COMPOUND FORMS AND USES THEREOF” (WYETH, priority 2008, published 2009)
Values belong to the molecule of their own block, whether it stands above or below them.

How the values were obtained:
[1] = molecular target: T1, α7 nicotinic acetylcholine receptor (Rattus norvegicus, UniProt Q05941); assay: functional FLIPR assay, α7 nAChR stably expressed in GH4C1 cells; assay type: cell-based; settings: GH4C1 cells stably transfected with rat α7 nAChR; agonist concentration range 0.001 to 30 microM
T1 construct: expressed in transfected cells

[2] = solubility of hydrochloride crystal forms; assay type: physicochemical
[3] = hygroscopicity, Dynamic Vapor Sorption (DVS); assay type: physicochemical; settings: for water absorbed eventually (up to): 90% RH; for RH at which moisture pick-up starts: relative humidity; for Hygroscopicity: hydrochloric acid salt
Method: Salt forms of a compound of formula 1 were investigated with X-ray powder diffraction, DSC, TGA and microscopy. FIG. 1 illustrates X-ray patterns observed for various salt forms. FIGS. 2 and 3 present results of thermal studies performed on such salt forms. FIGS. 4 and 5 present DVS data of sulfuric and phosphoric salts. […] FIGS. 6-12 show characterization data for hydrochloride salt forms.
Dynamic Vapor Sorption (DVS) was done at 25-26° C.

T1 sequence (Q05941 23-502): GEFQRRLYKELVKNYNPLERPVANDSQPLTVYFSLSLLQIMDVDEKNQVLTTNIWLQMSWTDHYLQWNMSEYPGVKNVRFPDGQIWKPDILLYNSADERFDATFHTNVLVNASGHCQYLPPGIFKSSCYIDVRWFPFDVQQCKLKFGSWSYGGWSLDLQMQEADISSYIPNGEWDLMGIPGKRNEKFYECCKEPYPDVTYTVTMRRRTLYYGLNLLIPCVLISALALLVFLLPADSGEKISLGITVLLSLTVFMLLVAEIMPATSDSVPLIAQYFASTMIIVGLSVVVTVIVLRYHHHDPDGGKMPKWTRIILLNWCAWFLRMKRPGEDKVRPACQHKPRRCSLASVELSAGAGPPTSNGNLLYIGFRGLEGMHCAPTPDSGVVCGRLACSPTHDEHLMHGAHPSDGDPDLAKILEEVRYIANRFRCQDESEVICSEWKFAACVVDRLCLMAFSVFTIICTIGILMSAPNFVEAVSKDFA

- solubility ([2]; MC/T, aqueous with cosolvent or surfactant or cyclodextrin): > 100 mg/mL
- water held at 50% RH ([3]; listed as Crystal Form III): (10% water
- Hygroscopicity (in words) ([3]; listed as Crystal Form III): Hygroscopic
Molecule: COc1ccc(-c2cc(NC(=O)CCCCN3CCCN(C(C)=O)CC3)n[nH]2)cc1.Cl [Form III]

- water held at 50% RH ([3]; listed as Crystal Form V): (7% at RH
- Hygroscopicity (in words) ([3]; listed as Crystal Form V): Hygroscopic
Molecule: COc1ccc(-c2cc(NC(=O)CCCCN3CCCN(C(C)=O)CC3)n[nH]2)cc1.Cl [Form V]

- melting point: 132 to 133 °C
- Hygroscopicity ([3]; crystalline solid with melting onset 125° C. (first of two such lines)): Yes
- Hygroscopicity ([3]; crystalline solid with melting onset 165° C.): Somewhat
- Hygroscopicity ([3]; crystalline solid with melting onset 185° C.): No
- Hygroscopicity ([3]; solid with three peaks: about 100, about 180 and about 200° C.): Yes
- hygroscopicity of the sample ([3]; hydrochloride salt of Example 2D, precipitated from DCM with HCl in Et2O): extreme hygroscopicity
- Hygroscopicity (in words) ([3]; listed as hydrochloride): non-hygroscopic
Molecule: COc1ccc(-c2cc(NC(=O)CCCCN3CCCN(C(C)=O)CC3)n[nH]2)cc1.Cl [Hydrochloric acid, 5-(4-acetyl-1,4-diazepan-1-yl)-N-(5-(4-methoxyphenyl)-1H-pyrazol-3-yl)pentanamide hydrogen chloride]

The next lines start with the molecule.

Molecule: C[N+]1(C)CCN(c2ccccc2)CC1 [DMPP]
- EC50 [1]: 980 ± 470 nM

Molecule: COc1ccc(-c2cc(NC(=O)CCCCN3CCCN(C(C)=O)CC3)n[nH]2)cc1.Cl [Form I, 5-(4-acetyl-1,4-diazepan-1-yl)-N-(5-(4-methoxyphenyl)-1H-pyrazol-3-yl)pentanamide hydrochloric salt Form I]
- solubility in water (in words) [2]: considerably soluble
- moisture gained at 70-100% RH ([3]; 70-100% RH, lost without significant hysteresis on decreasing RH): at least 2%
- water absorbed eventually (up to) [3]: up to 2%
- moisture gained when equilibrated at RH less than or equal to 70% ([3]; RH <= 70%): about 0.5%
- RH at which moisture pick-up starts [3]: about 50%

Molecule: COc1ccc(-c2cc(NC(=O)CCCCN3CCCN(C(C)=O)CC3)n[nH]2)cc1.Cl [Form II, 5-(4-acetyl-1,4-diazepan-1-yl)-N-(5-(4-methoxyphenyl)-1H-pyrazol-3-yl)pentanamide hydrochloric salt Form II]
- solubility in water (in words) [2]: considerably soluble
- water absorbed eventually (up to) [3]: up to 7%
- water held at low RH ([3]; low RH (0%)): 2%
- RH at which moisture pick-up starts [3]: about 20%

Molecule: Sulfuric acid
- water held at 50% RH [3]: maintains 0.4%
- water held at 50% RH ([3]; listed as sulfate salt form): about 0.4%
- water held at 50% RH ([3]; listed as sulfuric salt form): about 0.4%
- gain below 70% RH ([3]; below 70% RH): 0.5%
- Hygroscopicity (in words) ([3]; listed as sulfate salt): non-hygroscopic
- Hygroscopicity (in words) ([3]; listed as sulfate salt form): low degree of hygroscopicity
- Hygroscopicity (in words) ([3]; listed as sulfuric salt form): low degree of hygroscopicity
